According to ChEMBL document CHEMBL3797195, “Bacterial lipid membranes as promising targets to fight antimicrobial resistance, molecular foundations and illustration through the renewal of aminoglycoside antibiotics and emergence of amphiphilic aminoglycosides” (2016):
≈ marks a conversion by molar mass, not a printed value.

How the values were obtained:
Format in all cases: functional
Pseudomonas aeruginosa [1] = test: Antibacterial activity against clinical colistin-resistant Pseudomonas aeruginosa by microdilution method
Staphylococcus aureus [2] = test: Antibacterial activity against methicillin-resistant Staphylococcus aureus after 24 hrs by MTT assay
Pseudomonas aeruginosa [3] = test: Antibacterial activity against Pseudomonas aeruginosa after 12 to 18 hrs by MTT assay
Klebsiella pneumoniae = test: Antibacterial activity against Klebsiella pneumoniae after 12 to 18 hrs by MTT assay
Escherichia coli [4] = test: Antibacterial activity against Escherichia coli ATCC 25922 after 24 hrs by MTT assay; details: ATCC 25922, 24 h
Escherichia coli [5] = test: Antibacterial activity against Escherichia coli ATCC 25922 after 12 to 18 hrs by two fold dilution method
Staphylococcus aureus [6] = test: Antibacterial activity against Staphylococcus aureus ATCC 25923 after 12 to 18 hrs by two fold dilution method

| SMILES | MIC (Escherichia coli [5]) | MIC (Staphylococcus aureus [6]) | also measured |
| --- | --- | --- | --- |
| NC[C@H]1O[C@H](O[C@H]2[C@H](O)[C@@H](OCCCc3ccc4ccccc4c3)[C@H](N)C[C@@H]2N)[C@H](N)[C@@H](OCCCc2ccc3ccccc3c2)[C@@H]1O | – | – | MIC (Pseudomonas aeruginosa [1]): 2 µg/mL (≈ 3.04 µM) |
| NC[C@H]1O[C@H](O[C@H]2[C@H](O)[C@@H](OCCCCc3ccc4ccccc4c3)[C@H](N)C[C@@H]2N)[C@H](N)[C@@H](OCCCCc2ccc3ccccc3c2)[C@@H]1O | – | – | MIC (Pseudomonas aeruginosa [1]): 2 µg/mL (≈ 2.91 µM) |
| CCCCCCCO[C@@H]1[C@@H](OCCCCCCC)[C@H](N)C[C@H](N)[C@H]1O[C@H]1O[C@H](CN)[C@@H](OCCCCCCC)C[C@H]1N | – | – | MIC (Staphylococcus aureus [2]): 1 µg/mL (≈ 1.66 µM); MIC (Pseudomonas aeruginosa [3]): 4 µg/mL (≈ 6.66 µM); MIC (Klebsiella pneumoniae): 4 µg/mL (≈ 6.66 µM); MIC (Escherichia coli [4]): 4 µg/mL (≈ 6.66 µM) |
| NC[C@H]1O[C@H](O[C@H]2[C@H](O)[C@@H](OCCCCCCCCCc3ccc4ccccc4c3)[C@H](N)C[C@@H]2N)[C@H](N)[C@@H](OCCCCCCCCCc2ccc3ccccc3c2)[C@@H]1O | – | – | MIC (Pseudomonas aeruginosa [1]): 2 µg/mL (≈ 2.42 µM) |
| CCCCCCCCO[C@@H]1[C@@H](N)[C@H](O)[C@H](O[C@H]2[C@H](O)[C@@H](O[C@@H]3O[C@@H](CN)[C@H](O)[C@@H](O)[C@@H]3N)[C@H](N)C[C@@H]2N)O[C@H]1CO (single isomer, unassigned) | > 32 µg/mL | > 32 µg/mL | – |
| CCCCCCCCO[C@@H]1[C@@H](O[C@H]2O[C@H](CN)[C@@H](O)[C@H](O)[C@H]2N)[C@H](N)C[C@H](N)[C@H]1O[C@H]1O[C@H](CO)[C@@H](O)[C@H](N)[C@H]1O (stereo in doubt) | > 32 µg/mL | > 32 µg/mL | – |

Continued, in another order:

| MIC (Escherichia coli [5]) | MIC (Staphylococcus aureus [6]) | SMILES | also measured |
| --- | --- | --- | --- |
| > 32 µg/mL | > 32 µg/mL | CCCCCCCCO[C@H]1[C@@H](O[C@@H]2[C@@H](O)[C@H](O[C@H]3O[C@H](CN)[C@@H](O)[C@H](O)[C@H]3N)[C@@H](N)C[C@H]2N)O[C@H](CO)[C@@H](O)[C@@H]1O | – |
| > 32 µg/mL | > 32 µg/mL | CCCCCCCCO[C@@H]1[C@@H](O)[C@@H](O[C@@H]2[C@@H](O)[C@H](O[C@H]3O[C@H](CN)[C@@H](O)[C@H](O)[C@H]3N)[C@@H](N)C[C@H]2N)O[C@H](CO)[C@H]1O | – |
| > 32 µg/mL | > 32 µg/mL | CCCCCCCCO[C@@H]1[C@@H](O)[C@H](O)[C@H](O[C@H]2[C@H](O)[C@@H](O[C@@H]3O[C@@H](CN)[C@H](O)[C@@H](O)[C@@H]3N)[C@H](N)C[C@@H]2N)O[C@H]1CO (single isomer, unassigned) | – |
| > 32 µg/mL | > 32 µg/mL | CCCCCCOC[C@@H]1O[C@@H](O[C@@H]2[C@@H](O)[C@H](O[C@@H]3O[C@@H](CN)[C@H](O)[C@@H](O)[C@@H]3N)[C@@H](N)C[C@H]2N)[C@@H](O)[C@H](O)[C@H]1O (stereo in doubt) | – |
| > 32 µg/mL | > 32 µg/mL | CCCCCCCCO[C@@H]1[C@@H](O[C@H]2O[C@H](CN)[C@@H](O)[C@H](O)[C@H]2N)[C@H](N)C[C@H](N)[C@H]1O[C@H]1O[C@H](CO)[C@@H](O)[C@H](O)[C@H]1O (stereo in doubt) | – |
| > 32 µg/mL | > 32 µg/mL | CCCCCCCCOC[C@@H]1O[C@@H](O[C@@H]2[C@@H](O)[C@H](O[C@@H]3O[C@@H](CN)[C@H](O)[C@@H](O)[C@@H]3N)[C@@H](N)C[C@H]2N)[C@@H](O)[C@H](O)[C@H]1O (stereo in doubt) | – |
